Reference: patent US6953800B2, “Use of selective antagonists of the α1B-adrenergic receptor for improvement of sexual dysfunction” (Recordati S.A. Chemical, priority 1999, dated 2005)
Where a name gives a salt, the structure may show the parent alone.

Key:
human α1b-adrenoceptor = molecular target: T1, human α1b-adrenoceptor (Homo sapiens, UniProt P35368); experiment: [3H]Prazosin binding, cloned human α1b-adrenoceptor in CHO cell membranes; conditions: CHO membranes; read-out: Affinity (Ki) α1b, human cloned receptors
T1 construct: expressed in transfected cells
T1 sequence (P35368 1-520): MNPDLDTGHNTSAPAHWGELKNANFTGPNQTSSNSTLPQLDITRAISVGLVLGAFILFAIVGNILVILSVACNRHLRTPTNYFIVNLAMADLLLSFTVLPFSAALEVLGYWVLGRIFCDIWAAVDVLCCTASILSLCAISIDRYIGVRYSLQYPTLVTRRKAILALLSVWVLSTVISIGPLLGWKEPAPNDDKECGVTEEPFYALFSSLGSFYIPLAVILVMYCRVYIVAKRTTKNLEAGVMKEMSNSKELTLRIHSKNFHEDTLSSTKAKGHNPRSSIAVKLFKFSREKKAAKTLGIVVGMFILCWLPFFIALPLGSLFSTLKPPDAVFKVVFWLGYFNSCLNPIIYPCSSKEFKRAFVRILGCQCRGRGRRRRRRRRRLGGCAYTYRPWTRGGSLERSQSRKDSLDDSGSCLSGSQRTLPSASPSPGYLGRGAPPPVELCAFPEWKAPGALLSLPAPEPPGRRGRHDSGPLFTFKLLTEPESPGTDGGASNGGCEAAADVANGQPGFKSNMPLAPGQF
Protocol: (§1) Binding to cloned human α1-adrenoceptor subtypes was performed in membranes from CHO cells (Chinese hamster ovary cells) transfected by electroporation with DNA expressing the gene encoding each α1-adrenoceptor subtype. […] The incubation was stopped by addition of ice-cold Tris buffer and rapid filtration through 0.2% polyethyleneimine-pretreated Whatman GF/B or Schleicher & Schuell GF52 filters.
(§2) Data are expressed as mean Ki. All patents and other references cited herein are incorporated by reference in their entirety.

human α1a-adrenoceptor = molecular target: T2, human α1a-adrenoceptor (Homo sapiens, UniProt P35348); experiment: biochemical
T2 sequence (P35348 1-466): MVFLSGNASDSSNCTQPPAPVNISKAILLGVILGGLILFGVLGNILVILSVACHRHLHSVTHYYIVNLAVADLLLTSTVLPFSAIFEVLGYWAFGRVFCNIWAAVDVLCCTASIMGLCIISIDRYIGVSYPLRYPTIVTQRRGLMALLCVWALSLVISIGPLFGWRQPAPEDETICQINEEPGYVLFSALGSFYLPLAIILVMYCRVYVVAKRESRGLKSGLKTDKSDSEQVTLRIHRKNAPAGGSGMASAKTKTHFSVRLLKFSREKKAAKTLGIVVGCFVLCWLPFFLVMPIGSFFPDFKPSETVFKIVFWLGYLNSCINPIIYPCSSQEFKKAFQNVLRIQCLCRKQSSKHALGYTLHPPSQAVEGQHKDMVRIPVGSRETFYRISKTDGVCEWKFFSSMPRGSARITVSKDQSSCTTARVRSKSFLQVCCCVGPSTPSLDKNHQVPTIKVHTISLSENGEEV

human α1d-adrenoceptor = molecular target: T3, human α1d-adrenoceptor (Homo sapiens, UniProt P25100); experiment: [3H]Prazosin binding, cloned human α1d-adrenoceptor in CHO cell membranes; conditions: read-out: Affinity (Ki) α1d, human cloned receptors
T3 construct: expressed in transfected cells
T3 sequence (P25100 1-572): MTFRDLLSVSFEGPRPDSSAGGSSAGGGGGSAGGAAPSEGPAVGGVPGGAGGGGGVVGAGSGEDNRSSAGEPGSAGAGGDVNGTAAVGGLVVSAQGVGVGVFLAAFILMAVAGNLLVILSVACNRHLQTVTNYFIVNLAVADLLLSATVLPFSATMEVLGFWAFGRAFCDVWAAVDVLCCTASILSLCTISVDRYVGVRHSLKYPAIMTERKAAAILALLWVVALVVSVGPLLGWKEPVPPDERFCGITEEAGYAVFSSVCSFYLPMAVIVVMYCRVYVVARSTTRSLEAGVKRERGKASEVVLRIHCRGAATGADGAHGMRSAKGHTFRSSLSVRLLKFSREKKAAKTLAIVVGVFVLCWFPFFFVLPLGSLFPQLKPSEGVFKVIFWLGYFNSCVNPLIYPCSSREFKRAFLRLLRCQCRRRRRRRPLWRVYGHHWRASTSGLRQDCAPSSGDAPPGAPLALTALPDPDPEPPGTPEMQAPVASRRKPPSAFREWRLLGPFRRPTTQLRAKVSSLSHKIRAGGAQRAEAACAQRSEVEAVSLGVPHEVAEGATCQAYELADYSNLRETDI
Protocol: as §1, §2

anaesthetised dogs [1] = experiment: Intracavernous and blood pressure recording in dogs; conditions: for increase of ICP in comparison with basal ICP values: 1000 μg/kg (1000 μg given for prazosin, phentolamine) intracavernous; for effect on ICP (in words): intracavernous injection
Protocol: (§3) Male beagle dogs were anaesthetised with pentobarbital sodium (i.v. Nembutal, 35 mg/kg for induction and 4 mg/kg/h for maintenance) and intubated with an endotracheal cuffed tube to facilitate free ventilation. A collateral of the left femoral vein was cannulated with a PE catheter for infusion of the anaesthetic. Systemic BP was monitored via a Mikro-tip 6F (Millar Instruments) pressure transducer introduced into the aortic arch through the right common carotid artery. ICP was measured by means of a 20-gauge needle placed into the left or right corpus cavernosum and the same needle was used for intracavernous injection of the drugs. The needle was attached to a catheter filled with heparinized saline (25 IU/mL). […] The compounds to be tested were injected intracavernously in a volume of 0.5 ml and, after each injection, the needle was flushed with 0.5 ml of saline. The vehicles for compound dissolution were tested before the first dose of each drug. The compounds were administered in a cumulative way, with a 30-minute interval between doses. ICP (mmHg) was measured at the peak effect after the administration of the compounds. The duration of tumescence (DT, min) was measured from the beginning of the rise of ICP over its basal value up to the return to baseline. The systolic blood pressure and diastolic blood pressure (mmHg) were measured at the peak effect after the administration of compounds, in order to evaluate the effects of the compounds on BP independently from the effects on ICP. Moreover, the systolic blood pressure was measured at the time of maximal ICP value after intracavernous injection, to evaluate the ICP/BP ratios. […] The data were reported as mean ±s.e. of the mean, or percent variation (±s.e.) of the basal values.

anaesthetised rats = experiment: Intracavernous and blood pressure recording in rats; assay type: in vivo, rat; conditions: for decrease of blood pressure: after injection of 1000 μg/kg intracavernous; for effect on ICP (in words): intracavernous injection; for hypotension (in words, FIG. 1): marked hypotension defined as decrease of blood pressure equal to or higher than 40%
Protocol: Rats were anaesthetised by an intraperitoneal injection of urethane (1.5 g/kg in sterile saline) and placed on an homeothermic blanket. Their temperature was maintained at 37° C. Rats were tracheotomized to facilitate spontaneous breathing and to prevent aspiration of saliva. A catheter filled with heparinized saline (25 IU/ml) was placed into the carotid to record mean blood pressure (BP, mmHg). The penis was desheathed and the corpora cavernosa were exposed. A 25-gauge stainless-steel needle was inserted into one corpus cavernosum to record intracavernous pressure (ICP in mmHg). […] Pressure catheters were connected to pressure transducers (Model 750, Elcomatic Ltd, Glasgow, UK).
Following a resting period of 10 minutes, the compound solvent was delivered intracavernously (50 μl/injection). Then, increasing doses of one compound were injected every ten minutes by the same route. Five injections (one solvent plus four cumulative doses) were performed in each rat, and five rats were used for the study of one compound. For each injection and for each compound, mean BP averaged over the ten minutes following the injection was measured. The maximal ICP value reached during the ten-minute period following an injection was also recorded. In these experiments, all the compounds tested were dissolved and diluted in propylene glycol-Sorensen solvent.

bovine α1a-adrenoceptor = molecular target: T4, bovine α1a-adrenoceptor (Bos taurus, UniProt P18130); experiment: [3H]Prazosin binding, bovine α1a-adrenoceptor in COS-7 cell membranes
T4 construct: expressed in transfected cells; host or cells: COS-7 cells (transient), membranes
T4 sequence (P18130 1-466): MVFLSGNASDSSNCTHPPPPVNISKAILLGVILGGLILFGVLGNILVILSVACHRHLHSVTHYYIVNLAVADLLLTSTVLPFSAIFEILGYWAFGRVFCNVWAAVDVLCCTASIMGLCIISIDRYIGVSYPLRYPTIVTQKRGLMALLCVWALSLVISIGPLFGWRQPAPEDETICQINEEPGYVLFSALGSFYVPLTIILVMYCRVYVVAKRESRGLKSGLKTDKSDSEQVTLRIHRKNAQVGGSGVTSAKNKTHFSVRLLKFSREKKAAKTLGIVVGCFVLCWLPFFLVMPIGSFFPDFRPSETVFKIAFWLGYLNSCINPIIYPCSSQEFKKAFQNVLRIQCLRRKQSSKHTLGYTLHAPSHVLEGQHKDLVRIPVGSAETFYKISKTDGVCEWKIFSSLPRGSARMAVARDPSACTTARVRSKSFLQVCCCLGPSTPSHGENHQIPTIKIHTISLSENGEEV
Protocol: The incubation was stopped by addition of ice-cold Tris buffer and rapid filtration through 0.2% polyethyleneimine pretreated Whatman GF/B or Schleicher & Schuell GF52 filters.
as §2

anaesthetised dogs [2] = conditions: dog, in vivo
Protocol: as §3

| Ki (human α1b-adrenoceptor) [nM] | Compound | ICP (anaesthetised dogs [1]; 30 μg/kg intracavernous) [mmHg] | ICP (anaesthetised dogs [1]; 300 μg/kg intracavernous) [mmHg] | increase of ICP in comparison with basal ICP values (anaesthetised dogs [1]) [mmHg] | ICP (anaesthetised dogs [1]; 1000 μg/kg intracavernous) [mmHg] | effect on ICP (in words) (anaesthetised dogs [1]) | BP (anaesthetised rats; 10 μg/kg intracavernous) [mmHg] | ICP (anaesthetised rats; 10 μg/kg intracavernous) [mmHg] | BP (anaesthetised rats; 30 μg/kg intracavernous) [mmHg] | ICP (anaesthetised rats; 30 μg/kg intracavernous) [mmHg] | BP (anaesthetised rats; 100 μg/kg intracavernous) [mmHg] | ICP (anaesthetised rats; 100 μg/kg intracavernous) [mmHg] | BP (anaesthetised rats; 300 μg/kg intracavernous) [mmHg] | ICP (anaesthetised rats; 300 μg/kg intracavernous) [mmHg] | BP (anaesthetised rats; 1000 μg/kg intracavernous) [mmHg] | ICP (anaesthetised rats; 1000 μg/kg intracavernous) [mmHg] | decrease of blood pressure (anaesthetised rats) [%] | effect on ICP (in words) (anaesthetised rats) | hypotension (in words, FIG. 1) (anaesthetised rats) | hypotension (in words) (anaesthetised dogs [2]) | further results |
| --- | --- | --- | --- | --- | --- | --- | --- | --- | --- | --- | --- | --- | --- | --- | --- | --- | --- | --- | --- | --- | --- |
| 0.16 | COc1cc2nc(N3CCN(C(=O)COc4c(OC)cccc4C(C)C)C4CCCCC43)nc(N)c2cc1OC (racemic) [Example 4, 4-Amino-6,7-dimethoxy-2-[(±)-4-(2-isopropyl-6-methoxyphenoxyacetyl)-cis-octahydro-1-quinoxalinyl]quinazoline hydrochloride.2.5H2O] |  |  |  |  |  |  |  |  |  |  |  |  |  |  |  |  |  |  |  |  |
| 0.24 | COc1cc2nc(N3CCN(C(=O)c4ccc(C)o4)C4CCCCC43)nc(N)c2cc1OC (racemic) [Example 5, 4-Amino-6,7-dimethoxy-2-[(±)-4-(5-methyl-2-furoyl)-cis-octahydro-1-quinoxalinyl]-quinazoline hydrochloride.2.5H2O] |  |  |  |  |  |  |  |  |  |  |  |  |  |  |  |  |  |  |  |  |
| 0.65 | COc1cc2nc(N3CCN(C(=O)OCc4ccccc4)C4CCCCC43)nc(N)c2cc1OC (racemic) [Example 7, 4-Amino-6,7-dimethoxy-2-[(±)-4-benzyloxycarbonyl-cis-octahydro-1-quinoxalinyl]-quinazoline hydrochloride.0.75H2O] |  |  |  |  |  |  |  |  |  |  |  |  |  |  |  |  |  |  |  |  |
| 1.76 | COc1cc2nc(N3CCN(C(=O)c4ccco4)[C@H](C(=O)NC(C)(C)C)C3)nc(N)c2cc1OC [Compound C, 4-Amino-6,7-dimethoxy-2-[(3S)-3-(t-butylcarbamoyl)-4-(2-furoyl)-1-piperazinyl]-quinazoline] |  |  |  |  |  |  |  |  |  |  |  |  |  |  |  |  |  |  |  | Ki (human α1a-adrenoceptor): 94.1 nM; Ki (human α1d-adrenoceptor): 25.1 nM |
|  | Cc1ccc(N(CC2=NCCN2)c2cccc(O)c2)cc1 [Phentolamine] | 20.0 ± 2.3 | 16.0 ± 2.3 | 43 | 62.7 ± 24.3 | increased ICP at doses that induced substained hypotension | 79.8 ± 7.3 | 12.6 ± 1.7 | 72.2 ± 4.3 | 10.1 ± 1.4 | 61.1 ± 7.0 | 10.5 ± 1.4 | 63.0 ± 2.2 | 12.5 ± 2.3 | 59.8 ± 3.6 | 20.6 ± 2.1 | 30 | did not modify ICP up to 300 μg/kg | marked hypotension | relevant hypotension | ICP (anaesthetised dogs [1]; 10 μg/kg intracavernous): 24.0 ± 0.0 mmHg; DT (duration of tumescence) (anaesthetised dogs [1]; 1000 μg/kg intracavernous): 4.2 ± 2.1 min; Ki (bovine α1a-adrenoceptor): 3.22 nM |
|  | COc1cc2nc(N3CCN(C(=O)c4ccco4)CC3)nc(N)c2cc1OC [Prazosin] | 25.5 ± 6.3 | 37.5 ± 5.0 | 36 | 52.5 ± 5.0 | increased ICP at doses that induced substained hypotension | 59.4 ± 7.7 | 20.1 ± 6.4 | 60.0 ± 7.4 | 14.9 ± 3.3 | 56.8 ± 7.9 | 19.0 ± 6.6 | 41.3 ± 3.0 | 18.9 ± 6.8 | 43.7 ± 4.1 | 26.9 ± 3.5 | 41 | unable to elicit any ICP increase | marked hypotension | marked hypotension | ICP (anaesthetised dogs [1]; 100 μg/kg intracavernous): 27.0 ± 8.7 mmHg; decrease of diastolic blood pressure (anaesthetised dogs [1]; 1000 μg intracavernous): 71 mmHg |
